In patent US20080009418A1, “Selective Inhibitors” (Alchemia LTD., priority 2004, published 2008):

Tests used:
Human Melanocortin (MC3) = target: T1, Human Melanocortin (MC3) (Homo sapiens, UniProt P41968); assay: Radioligand binding, human melanocortin MC3 membranes, FlashPlate, [125I]-NDP-αMSH; conditions: compound at 10 μM, [125I]-NDP-αMSH
T1 construct: purchased Perkin Elmer Biosignal
Method in brief: (§1)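 Cloned human receptor membranes were coated onto FlashPlate wells and incubated with radioligand and compound (added from a 0.5 mM DMSO daughter plate) for 1 hour at room temperature in the dark. Scintillation counting gave percent inhibition, with DMSO defining total and reference ligand defining non-specific binding.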

Human Melanocortin (MC4) = target: T2, Human Melanocortin (MC4) (Homo sapiens, UniProt P32245); assay: Radioligand binding, human melanocortin MC4 membranes, FlashPlate, [125I]-NDP-αMSH; conditions: compound at 10 μM, [125I]-NDP-αMSH
T2 construct: purchased Perkin Elmer Biosignal
T2 sequence (P32245 whole entry): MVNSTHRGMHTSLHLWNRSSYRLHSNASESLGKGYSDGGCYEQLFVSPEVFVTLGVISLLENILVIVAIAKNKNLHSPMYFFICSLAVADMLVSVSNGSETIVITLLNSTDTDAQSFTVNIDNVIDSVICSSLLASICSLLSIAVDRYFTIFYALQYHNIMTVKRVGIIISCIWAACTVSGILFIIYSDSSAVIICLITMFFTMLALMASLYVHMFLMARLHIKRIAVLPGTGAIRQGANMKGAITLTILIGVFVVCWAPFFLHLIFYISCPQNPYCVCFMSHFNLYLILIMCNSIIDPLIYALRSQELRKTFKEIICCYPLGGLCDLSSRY
Method in brief: as §1

[1] = target: T3, Human neuropeptide Y (NPY-Y1) (Homo sapiens, UniProt P25929); assay: Radioligand binding, human neuropeptide Y NPY-Y1 membranes, FlashPlate, [125I]-PYY; conditions: compound at 10 μM, [125I]-PYY
T3 construct: purchased Perkin Elmer Biosignal
T3 sequence (P25929 1-384): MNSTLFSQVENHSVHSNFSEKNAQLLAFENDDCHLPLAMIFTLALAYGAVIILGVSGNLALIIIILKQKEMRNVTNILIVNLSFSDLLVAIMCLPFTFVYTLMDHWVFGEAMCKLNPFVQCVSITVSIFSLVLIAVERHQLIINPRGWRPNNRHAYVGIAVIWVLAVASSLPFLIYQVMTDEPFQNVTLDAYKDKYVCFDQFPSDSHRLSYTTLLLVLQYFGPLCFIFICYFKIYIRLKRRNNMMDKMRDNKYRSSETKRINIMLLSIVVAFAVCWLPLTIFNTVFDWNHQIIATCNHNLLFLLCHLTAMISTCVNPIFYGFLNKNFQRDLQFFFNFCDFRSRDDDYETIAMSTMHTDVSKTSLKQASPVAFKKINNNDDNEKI
Method in brief: as §1

Human μ-opioid (MOP) = target: T4, Human μ-opioid (MOP) (Homo sapiens, UniProt P35372); assay: Radioligand binding, human μ-opioid (MOP) membranes, FlashPlate, [3H]-Naloxone; conditions: compound at 10 μM, [3H]-Naloxone
T4 construct: purchased Perkin Elmer Biosignal
T4 sequence (P35372 whole entry): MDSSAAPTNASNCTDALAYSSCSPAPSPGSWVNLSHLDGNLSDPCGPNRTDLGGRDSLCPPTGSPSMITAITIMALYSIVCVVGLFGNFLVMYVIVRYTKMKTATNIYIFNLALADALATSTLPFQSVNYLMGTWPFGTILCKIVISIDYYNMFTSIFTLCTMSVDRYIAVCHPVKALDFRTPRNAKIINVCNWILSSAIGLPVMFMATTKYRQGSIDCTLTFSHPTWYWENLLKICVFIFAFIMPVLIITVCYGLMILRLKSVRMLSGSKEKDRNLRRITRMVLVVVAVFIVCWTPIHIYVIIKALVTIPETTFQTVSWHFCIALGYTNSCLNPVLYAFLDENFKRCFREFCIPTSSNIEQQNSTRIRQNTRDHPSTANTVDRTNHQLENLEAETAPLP
Method in brief: as §1

[2] = target: T5, Human melanin-concentrating hormone (MCH1) (Homo sapiens, UniProt Q99705); assay: Radioligand binding, human melanin-concentrating hormone MCH1 membranes, FlashPlate, [125I]-S36057; conditions: compound at 10 μM; for A6: inhibition of radioligand binding, human melanin-concentrating hormone (MCH1): [125I]-S36057
T5 construct: purchased Perkin Elmer Biosignal
T5 sequence (Q99705 whole entry): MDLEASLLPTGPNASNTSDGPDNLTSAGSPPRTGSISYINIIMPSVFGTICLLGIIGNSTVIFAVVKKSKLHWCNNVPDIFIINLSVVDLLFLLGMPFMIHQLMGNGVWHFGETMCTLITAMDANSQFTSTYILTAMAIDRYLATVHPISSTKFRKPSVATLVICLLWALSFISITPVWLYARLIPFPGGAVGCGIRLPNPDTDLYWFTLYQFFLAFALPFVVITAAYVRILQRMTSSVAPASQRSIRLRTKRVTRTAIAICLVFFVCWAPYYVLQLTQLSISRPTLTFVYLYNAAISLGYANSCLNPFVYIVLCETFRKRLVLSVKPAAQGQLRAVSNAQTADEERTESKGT
Method in brief: as §1

Human melanocortin (MC5) = target: T6, Human melanocortin (MC5) (Homo sapiens, UniProt P33032); assay: Radioligand binding, human melanocortin MC5 membranes, FlashPlate, [125I]-NDP-αMSH; conditions: compound at 10 μM, [125I]-NDP-αMSH
T6 construct: purchased Perkin Elmer Biosignal
T6 sequence (P33032 whole entry): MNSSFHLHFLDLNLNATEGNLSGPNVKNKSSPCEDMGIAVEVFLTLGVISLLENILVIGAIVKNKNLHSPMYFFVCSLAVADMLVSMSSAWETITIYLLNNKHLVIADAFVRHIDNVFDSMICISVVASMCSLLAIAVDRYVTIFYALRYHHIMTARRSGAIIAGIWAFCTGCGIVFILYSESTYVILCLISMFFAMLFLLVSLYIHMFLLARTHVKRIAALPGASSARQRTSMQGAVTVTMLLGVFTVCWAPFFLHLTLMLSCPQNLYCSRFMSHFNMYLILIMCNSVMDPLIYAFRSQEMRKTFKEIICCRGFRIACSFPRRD
Method in brief: as §1

Mouse urotensin (mUR2) = target: T7, Mouse urotensin (mUR2) (Mus musculus, UniProt Q8VIH9); assay: Radioligand binding, mouse urotensin mUR2 membranes, FlashPlate, [125I]-Urotensin II; conditions: compound at 10 μM, [125I]-Urotensin II
T7 construct: purchased Perkin Elmer Biosignal
T7 sequence (Q8VIH9 1-385): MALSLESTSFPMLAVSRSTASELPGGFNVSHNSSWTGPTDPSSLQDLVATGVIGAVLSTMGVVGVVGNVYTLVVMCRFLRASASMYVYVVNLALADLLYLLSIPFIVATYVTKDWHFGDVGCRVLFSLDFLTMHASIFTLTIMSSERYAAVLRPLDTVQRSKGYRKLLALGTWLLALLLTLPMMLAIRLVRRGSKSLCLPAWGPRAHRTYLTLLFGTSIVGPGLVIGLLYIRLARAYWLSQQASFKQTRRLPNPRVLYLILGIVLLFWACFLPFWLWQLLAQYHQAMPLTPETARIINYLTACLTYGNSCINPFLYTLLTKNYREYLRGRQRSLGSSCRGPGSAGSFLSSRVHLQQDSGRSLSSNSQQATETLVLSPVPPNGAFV
Method in brief: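 Cloned mouse urotensin (mUR2) receptor membranes from Perkin Elmer Biosignal were immobilized in FlashPlate microplates using a proprietary coating. Each well got 19.5 μl buffer, then 0.5 μl of DMSO, reference ligand, or compound. Adding 5 μl of [125I]-Urotensin II, diluted to 5× final concentration in binding buffer, started binding. Plates were sealed with TopSeal-A and incubated 1 hour at room temperature in the dark. Wells were counted for 30 seconds each on a TopCount after a 60-second delay, and percentage inhibition was calculated.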

Human δ-opioid (DOP) = target: T8, Human δ-opioid (DOP) (Homo sapiens, UniProt P41143); assay: Radioligand binding, human δ-opioid (DOP) membranes, FlashPlate, [3H]-Bremazocine; conditions: compound at 10 μM, [3H]-Bremazocine
T8 construct: purchased Perkin Elmer Biosignal
T8 sequence (P41143 whole entry): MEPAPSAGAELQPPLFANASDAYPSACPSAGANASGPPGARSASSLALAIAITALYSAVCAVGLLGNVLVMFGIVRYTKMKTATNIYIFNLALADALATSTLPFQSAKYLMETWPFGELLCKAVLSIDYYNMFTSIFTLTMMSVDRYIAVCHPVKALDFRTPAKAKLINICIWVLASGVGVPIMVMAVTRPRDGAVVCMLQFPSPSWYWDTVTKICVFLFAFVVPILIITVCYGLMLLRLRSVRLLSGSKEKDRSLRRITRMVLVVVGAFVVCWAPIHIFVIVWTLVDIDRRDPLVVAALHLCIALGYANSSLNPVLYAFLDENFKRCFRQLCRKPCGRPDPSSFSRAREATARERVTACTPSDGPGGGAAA
Method in brief: as §1

Human neurokinin (NK1) = target: T9, Human neurokinin (NK1) (Homo sapiens, UniProt P25103); assay: Radioligand binding, human neurokinin NK1 membranes, filtration, [125I]-Substance P; conditions: compound at 10 μM, [125I]-Substance P
T9 construct: purchased Perkin Elmer Biosignal
T9 sequence (P25103 whole entry): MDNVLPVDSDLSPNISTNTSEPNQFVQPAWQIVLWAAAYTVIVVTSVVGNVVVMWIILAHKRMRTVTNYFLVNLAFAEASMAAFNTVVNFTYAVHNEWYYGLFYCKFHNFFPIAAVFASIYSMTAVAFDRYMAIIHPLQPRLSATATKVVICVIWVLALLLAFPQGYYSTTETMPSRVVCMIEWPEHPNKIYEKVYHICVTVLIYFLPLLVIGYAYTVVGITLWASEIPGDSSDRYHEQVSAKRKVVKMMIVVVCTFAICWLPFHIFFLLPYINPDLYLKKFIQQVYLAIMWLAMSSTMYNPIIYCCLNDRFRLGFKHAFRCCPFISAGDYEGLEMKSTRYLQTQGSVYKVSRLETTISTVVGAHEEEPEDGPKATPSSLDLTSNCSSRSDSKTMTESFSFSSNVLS
Method in brief: (§2)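 Percent inhibition of radioligand binding measured on recombinant human membranes: NK1 with [125I]-Substance P, KOP with [3H]-Diprenorphine. Incubation 1 h at room temperature, then harvest onto 0.3% PEI-soaked filters, cold Tris-HCl pH 7.4 washes and scintillation counting; non-specific binding from reference ligand wells.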

Human opioid (ORL1) = target: T10, Human opioid (ORL1) (Homo sapiens, UniProt P41146); assay: Radioligand binding, human opioid ORL1 membranes, FlashPlate, [125I]-Nociceptin; conditions: compound at 10 μM, [125I]-Nociceptin
T10 construct: purchased Perkin Elmer Biosignal
T10 sequence (P41146 whole entry): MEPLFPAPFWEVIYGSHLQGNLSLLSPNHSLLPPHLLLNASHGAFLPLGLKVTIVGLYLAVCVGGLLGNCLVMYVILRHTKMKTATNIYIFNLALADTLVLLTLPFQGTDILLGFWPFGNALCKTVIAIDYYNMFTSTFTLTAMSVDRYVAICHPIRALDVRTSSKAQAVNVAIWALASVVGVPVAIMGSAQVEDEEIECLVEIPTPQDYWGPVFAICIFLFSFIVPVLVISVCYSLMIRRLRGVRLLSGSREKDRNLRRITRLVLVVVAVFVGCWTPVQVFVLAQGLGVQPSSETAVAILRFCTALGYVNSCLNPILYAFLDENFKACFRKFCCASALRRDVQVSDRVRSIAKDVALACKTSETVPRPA
Method in brief: as §1

Human κ-Opioid (KOP) = target: T11, Human κ-Opioid (KOP) (Homo sapiens, UniProt P41145); assay: Radioligand binding, human κ-opioid (KOP) membranes, filtration, [3H]-Diprenorphine; conditions: compound at 10 μM, [3H]-Diprenorphine
T11 construct: purchased Perkin Elmer Biosignal
T11 sequence (P41145 whole entry): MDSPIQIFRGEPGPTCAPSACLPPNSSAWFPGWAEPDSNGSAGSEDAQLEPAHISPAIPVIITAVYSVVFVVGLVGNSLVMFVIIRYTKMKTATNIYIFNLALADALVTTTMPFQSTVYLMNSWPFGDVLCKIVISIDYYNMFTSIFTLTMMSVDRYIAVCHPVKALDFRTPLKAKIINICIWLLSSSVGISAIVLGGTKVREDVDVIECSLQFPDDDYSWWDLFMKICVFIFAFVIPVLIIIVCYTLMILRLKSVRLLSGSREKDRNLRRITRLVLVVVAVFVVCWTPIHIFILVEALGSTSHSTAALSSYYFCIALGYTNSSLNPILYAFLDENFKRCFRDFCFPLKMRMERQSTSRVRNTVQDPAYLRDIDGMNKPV
Method in brief: as §2

[3] = [125I]-S36057, human MCH1 membranes

T1 sequence (P41968 whole entry): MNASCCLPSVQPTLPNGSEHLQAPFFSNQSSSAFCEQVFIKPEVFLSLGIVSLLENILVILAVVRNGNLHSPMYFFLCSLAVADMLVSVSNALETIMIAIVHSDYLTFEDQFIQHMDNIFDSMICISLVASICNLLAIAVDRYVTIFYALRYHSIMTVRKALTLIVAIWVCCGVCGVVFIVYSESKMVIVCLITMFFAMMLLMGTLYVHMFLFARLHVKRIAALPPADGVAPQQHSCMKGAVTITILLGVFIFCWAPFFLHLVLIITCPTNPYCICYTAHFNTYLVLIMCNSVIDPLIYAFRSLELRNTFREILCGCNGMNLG

Compound: N=C(N)NCC(=O)NC1C(OCc2ccc(Cl)cc2)OC(COCc2ccc3ccccc3c2)C(O)C1OCc1ccc(Cl)cc1 (stereo not shown) [compound 417]
- A3: inhibition of radioligand binding (Human Melanocortin (MC3); human MC3 membranes): + (“+” indicates greater than 50% inhibition at 10 μM)
- A4: inhibition of radioligand binding (Human Melanocortin (MC4); human MC4 membranes): + (“+” indicates greater than 50% inhibition at 10 μM)
- A9: inhibition of radioligand binding ([1]; human NPY-Y1 membranes): − (“−” indicates less than 50% inhibition at 10 μM)
- A7: inhibition of radioligand binding (Human μ-opioid (MOP); human MOP membranes): − (“−” indicates less than 50% inhibition at 10 μM)
- A6: inhibition of radioligand binding [2, 3]: + (“+” indicates greater than 50% inhibition at 10 μM)
- A5: inhibition of radioligand binding (Human melanocortin (MC5); human MC5 membranes): + (“+” indicates greater than 50% inhibition at 10 μM)
- A11: inhibition of radioligand binding (Mouse urotensin (mUR2); mouse mUR2 membranes): − (“−” indicates less than 50% inhibition at 10 μM)
- A1: inhibition of radioligand binding (Human δ-opioid (DOP); human DOP membranes): − (“−” indicates less than 50% inhibition at 10 μM)
- A8: inhibition of radioligand binding (Human neurokinin (NK1); human NK1 membranes): + (“+” indicates greater than 50% inhibition at 10 μM)
- A10: inhibition of radioligand binding (Human opioid (ORL1); human ORL1 membranes): − (“−” indicates less than 50% inhibition at 10 μM)
- A2: inhibition of radioligand binding (Human κ-Opioid (KOP); human KOP membranes): − (“−” indicates less than 50% inhibition at 10 μM)

Compound: NCCC(=O)NC1O[C@H](CO)[C@@H](O)[C@H](OCc2cccc3ccccc23)[C@H]1NC(=O)c1ccccc1 (stereo partly shown) [compound 358]
- A3: inhibition of radioligand binding, human melanocortin (MC3) (Human Melanocortin (MC3)): − (“−” indicates less than 50% inhibition at 10 μM)
- A4: inhibition of radioligand binding, human melanocortin (MC4) (Human Melanocortin (MC4)): − (“−” indicates less than 50% inhibition at 10 μM)
- A9: inhibition of radioligand binding, human neuropeptide Y (NPY-Y1) [1]: + (“+” indicates greater than 50% inhibition at 10 μM)
- A7: inhibition of radioligand binding, human μ-opioid (MOP) (Human μ-opioid (MOP)): − (“−” indicates less than 50% inhibition at 10 μM)
- A6: inhibition of radioligand binding, human melanin-concentrating hormone (MCH1) [2]: − (“−” indicates less than 50% inhibition at 10 μM)
- A5: inhibition of radioligand binding, human melanocortin (MC5) (Human melanocortin (MC5)): − (“−” indicates less than 50% inhibition at 10 μM)
- A11: inhibition of radioligand binding, mouse urotensin (mUR2) (Mouse urotensin (mUR2)): − (“−” indicates less than 50% inhibition at 10 μM)
- A1: inhibition of radioligand binding, human δ-opioid (DOP) (Human δ-opioid (DOP)): − (“−” indicates less than 50% inhibition at 10 μM)
- A8: inhibition of radioligand binding, human neurokinin (NK1) (Human neurokinin (NK1)): − (“−” indicates less than 50% inhibition at 10 μM)
- A10: inhibition of radioligand binding, human opioid (ORL1) (Human opioid (ORL1)): − (“−” indicates less than 50% inhibition at 10 μM)
- A2: inhibition of radioligand binding, human κ-opioid (KOP) (Human κ-Opioid (KOP)): − (“−” indicates less than 50% inhibition at 10 μM)

Compound: CSC1OC(COCc2ccccc2)C(O)C(OCc2ccc3ccccc3c2)C1NC(=O)CCCN (stereo not shown) [compound 304]
- A3: inhibition of radioligand binding, human melanocortin (MC3) (Human Melanocortin (MC3)): − (“−” indicates less than 50% inhibition at 10 μM)
- A4: inhibition of radioligand binding, human melanocortin (MC4) (Human Melanocortin (MC4)): − (“−” indicates less than 50% inhibition at 10 μM)
- A9: inhibition of radioligand binding, human neuropeptide Y (NPY-Y1) [1]: − (“−” indicates less than 50% inhibition at 10 μM)
- A7: inhibition of radioligand binding, human μ-opioid (MOP) (Human μ-opioid (MOP)): − (“−” indicates less than 50% inhibition at 10 μM)
- A6: inhibition of radioligand binding, human melanin-concentrating hormone (MCH1) [2]: − (“−” indicates less than 50% inhibition at 10 μM)
- A5: inhibition of radioligand binding, human melanocortin (MC5) (Human melanocortin (MC5)): − (“−” indicates less than 50% inhibition at 10 μM)
- A11: inhibition of radioligand binding, mouse urotensin (mUR2) (Mouse urotensin (mUR2)): − (“−” indicates less than 50% inhibition at 10 μM)
- A1: inhibition of radioligand binding, human δ-opioid (DOP) (Human δ-opioid (DOP)): − (“−” indicates less than 50% inhibition at 10 μM)
- A8: inhibition of radioligand binding, human neurokinin (NK1) (Human neurokinin (NK1)): + (“+” indicates greater than 50% inhibition at 10 μM)
- A10: inhibition of radioligand binding, human opioid (ORL1) (Human opioid (ORL1)): − (“−” indicates less than 50% inhibition at 10 μM)
- A2: inhibition of radioligand binding, human κ-opioid (KOP) (Human κ-Opioid (KOP)): − (“−” indicates less than 50% inhibition at 10 μM)

Compound: NCCC(=O)NC1C(OCc2ccc3ccccc3c2)OC(COCc2ccc3ccccc3c2)C(O)C1OCc1ccc(Cl)cc1 (stereo not shown) [compound 381]
- A3: inhibition of radioligand binding (Human Melanocortin (MC3); human MC3 membranes): + (“+” indicates greater than 50% inhibition at 10 μM)
- A4: inhibition of radioligand binding (Human Melanocortin (MC4); human MC4 membranes): + (“+” indicates greater than 50% inhibition at 10 μM)
- A9: inhibition of radioligand binding ([1]; human NPY-Y1 membranes): − (“−” indicates less than 50% inhibition at 10 μM)
- A7: inhibition of radioligand binding (Human μ-opioid (MOP); human MOP membranes): − (“−” indicates less than 50% inhibition at 10 μM)
- A6: inhibition of radioligand binding [2, 3]: − (“−” indicates less than 50% inhibition at 10 μM)
- A5: inhibition of radioligand binding (Human melanocortin (MC5); human MC5 membranes): + (“+” indicates greater than 50% inhibition at 10 μM)
- A11: inhibition of radioligand binding (Mouse urotensin (mUR2); mouse mUR2 membranes): − (“−” indicates less than 50% inhibition at 10 μM)
- A1: inhibition of radioligand binding (Human δ-opioid (DOP); human DOP membranes): − (“−” indicates less than 50% inhibition at 10 μM)
- A8: inhibition of radioligand binding (Human neurokinin (NK1); human NK1 membranes): + (“+” indicates greater than 50% inhibition at 10 μM)
- A10: inhibition of radioligand binding (Human opioid (ORL1); human ORL1 membranes): − (“−” indicates less than 50% inhibition at 10 μM)
- A2: inhibition of radioligand binding (Human κ-Opioid (KOP); human KOP membranes): − (“−” indicates less than 50% inhibition at 10 μM)

Compound: CSC1OC(COCc2ccc3ccccc3c2)C(O)C(OCc2ccccc2)C1NC(=O)CCN (stereo not shown) [compound 261]
- A3: inhibition of radioligand binding (Human Melanocortin (MC3); FlashPlate): − (“−” indicates less than 50% inhibition at 10 μM)
- A4: inhibition of radioligand binding (Human Melanocortin (MC4); FlashPlate): − (“−” indicates less than 50% inhibition at 10 μM)
- A9: inhibition of radioligand binding ([1]; FlashPlate): − (“−” indicates less than 50% inhibition at 10 μM)
- A7: inhibition of radioligand binding (Human μ-opioid (MOP); FlashPlate): − (“−” indicates less than 50% inhibition at 10 μM)
- A6: inhibition of radioligand binding ([2]; [125I]-S36057, FlashPlate): − (“−” indicates less than 50% inhibition at 10 μM)
- A5: inhibition of radioligand binding (Human melanocortin (MC5); FlashPlate): + (“+” indicates greater than 50% inhibition at 10 μM)
- A11: inhibition of radioligand binding (Mouse urotensin (mUR2); FlashPlate): − (“−” indicates less than 50% inhibition at 10 μM)
- A1: inhibition of radioligand binding (Human δ-opioid (DOP); FlashPlate): − (“−” indicates less than 50% inhibition at 10 μM)
- A8: inhibition of radioligand binding (Human neurokinin (NK1); filtration): − (“−” indicates less than 50% inhibition at 10 μM)
- A10: inhibition of radioligand binding (Human opioid (ORL1); FlashPlate): − (“−” indicates less than 50% inhibition at 10 μM)
- A2: inhibition of radioligand binding (Human κ-Opioid (KOP); filtration): − (“−” indicates less than 50% inhibition at 10 μM)
